Test results as given in ChEMBL document CHEMBL4052687, “Synthesis of MeON-neoglycosides of digoxigenin with 6-deoxy- and 2,6-dideoxy-d-glucose derivatives and their anticancer activity” (2017).
Activity calls are given as the source filed them. The calls are words filed in the database; no cut-off is given here.

Tests used:
[1] = test system: NCI-H460; test: Cytotoxicity in human NCI-H460 cells assessed as cell viability at 50 nM incubated for 48 hrs by MTT assay; type: functional; conditions: NCI-H460, 48 h, read-out: Activity
[2] = target: Nuclear receptor subfamily 4immunitygroup A member 1 (Homo sapiens) (UniProt P22736); test: Induction of Nur77 protein translocation from nucleus to cytoplasm in human NCI-H460 cells at 20 nM incubated for 3 hrs by immunofluorescence microscopy; type: cell-based
[3] = test system: NCI-H460; test: Induction of Nur77 protein expression in human NCI-H460 cells at 20 nM incubated for 3 hrs by Western blot method relative to digoxin; type: functional, cell-based

Sequence of Nuclear receptor subfamily 4immunitygroup A member 1 (Homo sapiens) (P22736 whole entry): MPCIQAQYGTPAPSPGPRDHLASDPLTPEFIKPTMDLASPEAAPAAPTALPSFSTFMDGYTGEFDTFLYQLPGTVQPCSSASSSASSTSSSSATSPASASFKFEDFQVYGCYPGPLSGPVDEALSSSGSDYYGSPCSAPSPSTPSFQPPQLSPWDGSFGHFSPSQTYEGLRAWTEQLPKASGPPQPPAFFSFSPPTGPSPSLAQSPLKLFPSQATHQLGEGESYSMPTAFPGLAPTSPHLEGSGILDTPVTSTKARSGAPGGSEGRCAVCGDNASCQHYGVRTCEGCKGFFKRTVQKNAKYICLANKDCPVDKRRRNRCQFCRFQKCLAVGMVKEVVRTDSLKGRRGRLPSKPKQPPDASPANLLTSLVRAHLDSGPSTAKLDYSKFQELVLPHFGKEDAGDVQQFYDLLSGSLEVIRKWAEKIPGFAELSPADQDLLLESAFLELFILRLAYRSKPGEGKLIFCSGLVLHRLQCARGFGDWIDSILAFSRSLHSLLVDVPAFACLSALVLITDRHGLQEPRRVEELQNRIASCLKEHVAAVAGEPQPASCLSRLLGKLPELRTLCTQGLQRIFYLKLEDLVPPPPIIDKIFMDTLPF

| Structure (SMILES) | viability at 0.05 µM [1] | Activity [2] | Activity [3] |
| --- | --- | --- | --- |
| CO[C@H]1[C@H](O)[C@@H](O)[C@H](N(OC)[C@H]2CC[C@@]3(C)[C@H](CC[C@@H]4[C@@H]3C[C@@H](O)[C@]3(C)[C@@H](C5=CC(=O)OC5)CC[C@]43O)C2)O[C@@H]1C | > 90% |  |  |
| CO[C@@H]1[C@@H](O)[C@H](OC)[C@@H](C)O[C@H]1N(OC)[C@@H]1CC[C@@]2(C)[C@H](CC[C@@H]3[C@@H]2C[C@@H](O)[C@]2(C)[C@@H](C4=CC(=O)OC4)CC[C@]32O)C1 | > 90% | Active |  |
| CO[C@@H]1[C@@H](O)[C@H](OC)[C@@H](C)O[C@H]1N(OC)[C@H]1CC[C@@]2(C)[C@H](CC[C@@H]3[C@@H]2C[C@@H](O)[C@]2(C)[C@@H](C4=CC(=O)OC4)CC[C@]32O)C1 | > 90% | Active | Active |
| CON([C@H]1CC[C@@]2(C)[C@H](CC[C@@H]3[C@@H]2C[C@@H](O)[C@]2(C)[C@@H](C4=CC(=O)OC4)CC[C@]32O)C1)[C@H]1O[C@@H](CO)[C@H](O)[C@@H](O)[C@@H]1O | > 90% | Active | Active |
| CON([C@H]1CC[C@@]2(C)[C@H](CC[C@@H]3[C@@H]2C[C@@H](O)[C@]2(C)[C@@H](C4=CC(=O)OC4)CC[C@]32O)C1)[C@@H]1O[C@H](CO)[C@@H](O)[C@H](O)[C@H]1O | > 90% |  |  |
| CO[C@@H]1[C@@H](OC)[C@H](O)[C@@H](C)O[C@H]1N(OC)[C@@H]1CC[C@@]2(C)[C@H](CC[C@@H]3[C@@H]2C[C@@H](O)[C@]2(C)[C@@H](C4=CC(=O)OC4)CC[C@]32O)C1 | > 90% | Active |  |
| CO[C@H]1[C@H](O)[C@@H](O)[C@H](N(OC)[C@@H]2CC[C@@]3(C)[C@H](CC[C@@H]4[C@@H]3C[C@@H](O)[C@]3(C)[C@@H](C5=CC(=O)OC5)CC[C@]43O)C2)O[C@@H]1C | > 90% |  |  |
| CO[C@@H]1C[C@H](N(OC)[C@H]2CC[C@@]3(C)[C@H](CC[C@@H]4[C@@H]3C[C@@H](O)[C@]3(C)[C@@H](C5=CC(=O)OC5)CC[C@]43O)C2)O[C@H](C)[C@H]1O | > 90% |  |  |
| CO[C@@H]1[C@@H](O)[C@H](N(OC)[C@@H]2CC[C@@]3(C)[C@H](CC[C@@H]4[C@@H]3C[C@@H](O)[C@]3(C)[C@@H](C5=CC(=O)OC5)CC[C@]43O)C2)O[C@H](C)[C@H]1O | > 90% |  |  |
| CO[C@@H]1[C@@H](C)O[C@@H](N(OC)[C@H]2CC[C@@]3(C)[C@H](CC[C@@H]4[C@@H]3C[C@@H](O)[C@]3(C)[C@@H](C5=CC(=O)OC5)CC[C@]43O)C2)C[C@H]1OC | > 90% |  |  |
| CO[C@@H]1[C@@H](O)[C@H](N(OC)[C@H]2CC[C@@]3(C)[C@H](CC[C@@H]4[C@@H]3C[C@@H](O)[C@]3(C)[C@@H](C5=CC(=O)OC5)CC[C@]43O)C2)O[C@H](C)[C@H]1O | > 90% | Active |  |
| CO[C@@H]1[C@@H](O)[C@H](O)[C@@H](C)O[C@H]1N(OC)[C@H]1CC[C@@]2(C)[C@H](CC[C@@H]3[C@@H]2C[C@@H](O)[C@]2(C)[C@@H](C4=CC(=O)OC4)CC[C@]32O)C1 | > 90% |  |  |
| CO[C@@H]1[C@@H](C)O[C@@H](N(OC)[C@@H]2CC[C@@]3(C)[C@H](CC[C@@H]4[C@@H]3C[C@@H](O)[C@]3(C)[C@@H](C5=CC(=O)OC5)CC[C@]43O)C2)C[C@H]1OC | > 90% |  |  |
| CO[C@@H]1[C@@H](OC)[C@H](O)[C@@H](C)O[C@H]1N(OC)[C@H]1CC[C@@]2(C)[C@H](CC[C@@H]3[C@@H]2C[C@@H](O)[C@]2(C)[C@@H](C4=CC(=O)OC4)CC[C@]32O)C1 | > 90% |  |  |
| CON([C@H]1CC[C@@]2(C)[C@H](CC[C@@H]3[C@@H]2C[C@@H](O)[C@]2(C)[C@@H](C4=CC(=O)OC4)CC[C@]32O)C1)[C@@H]1O[C@H](C)[C@@H](O)[C@H](O)[C@H]1O | > 90% |  |  |
| CON[C@@H]1CC[C@@]2(C)[C@H](CC[C@@H]3[C@@H]2C[C@@H](O)[C@]2(C)[C@@H](C4=CC(=O)OC4)CC[C@]32O)C1 |  |  | inactive |
| CON([C@@H]1CC[C@@]2(C)[C@H](CC[C@@H]3[C@@H]2C[C@@H](O)[C@]2(C)[C@@H](C4=CC(=O)OC4)CC[C@]32O)C1)[C@@H]1O[C@H](CO)[C@@H](O)[C@H](O)[C@H]1O | > 90% | Active |  |
| CON([C@@H]1CC[C@@]2(C)[C@H](CC[C@@H]3[C@@H]2C[C@@H](O)[C@]2(C)[C@@H](C4=CC(=O)OC4)CC[C@]32O)C1)[C@@H]1O[C@H](C)[C@@H](O)[C@H](O)[C@H]1O | > 90% |  | Active |
| CON[C@H]1CC[C@@]2(C)[C@H](CC[C@@H]3[C@@H]2C[C@@H](O)[C@]2(C)[C@@H](C4=CC(=O)OC4)CC[C@]32O)C1 |  |  | inactive |
| CO[C@@H]1C[C@H](N(OC)[C@@H]2CC[C@@]3(C)[C@H](CC[C@@H]4[C@@H]3C[C@@H](O)[C@]3(C)[C@@H](C5=CC(=O)OC5)CC[C@]43O)C2)O[C@H](C)[C@H]1O | > 90% | Active |  |
| CO[C@@H]1[C@@H](O)[C@H](O)[C@@H](C)O[C@H]1N(OC)[C@@H]1CC[C@@]2(C)[C@H](CC[C@@H]3[C@@H]2C[C@@H](O)[C@]2(C)[C@@H](C4=CC(=O)OC4)CC[C@]32O)C1 | > 90% |  | Active |
| CO[C@@H]1[C@@H](O)[C@H](N(OC)[C@@H]2CC[C@@]3(C)[C@H](CC[C@@H]4[C@@H]3C[C@@H](O)[C@]3(C)[C@@H](C5=CC(=O)OC5)CC[C@]43O)C2)O[C@H](C)[C@H]1OC | > 90% | Active |  |
| CO[C@@H]1[C@@H](O)[C@H](N(OC)[C@H]2CC[C@@]3(C)[C@H](CC[C@@H]4[C@@H]3C[C@@H](O)[C@]3(C)[C@@H](C5=CC(=O)OC5)CC[C@]43O)C2)O[C@H](C)[C@H]1OC | > 90% |  |  |
| CON([C@@H]1CC[C@@]2(C)[C@H](CC[C@@H]3[C@@H]2C[C@@H](O)[C@]2(C)[C@@H](C4=CC(=O)OC4)CC[C@]32O)C1)[C@H]1O[C@@H](CO)[C@H](O)[C@@H](O)[C@@H]1O | > 90% |  | Active |
